Test results from patent publication US12479831B2, “Substituted N(-methyl-D3)pyridazine-3-carboxamide or M-(methyl-D3)-nicotinamide compounds as IL-12, IL-23 and/or IFNα modulators” (BRISTOL-MYERS SQUIBB COMPANY, priority 2020, dated 2025).
pIC50: −log10 of the molar value.

tested on: IFNα-Induced STAT Phosphorylation in Human Whole Blood; assay: IFNα-Induced STAT Phosphorylation in Human Whole Blood; format: cell-based; conditions: 1 h incubation with compound, 1000 U/mL recombinant human IFNα A/D for 15 min, pSTAT5 (pY694) median fluorescence intensity in CD3 positive population, read-out: hWB IC50
Experimental: IFNα-Induced STAT Phosphorylation in Human Whole Blood
After an hour long incubation with compound, human whole blood (drawn with either EDTA or ACD-A as anti-coagulant) was stimulated with 1000 U/mL recombinant human IFNα A/D (R&D Systems 11200-2) for 15 min. The stimulation was stopped by adding Fix/Lyse buffer (BD 558049). Cells were stained with a CD3 FITC antibody (BD 555916), washed, and permeabilized on ice using Perm III buffer (BD 558050). […] The amount of pSTAT5 expression was quantitated by median fluorescence intensity after gating on the CD3 positive population.
IFNα-Induced STAT Phosphorylation in Human Whole Blood Inhibition Data

Compound	pIC50
[2H]C([2H])([2H])NC(=O)c1nnc(Nc2cnn(CC)n2)cc1Nc1cccc(-c2ncccn2)c1OC [Example 86, 6-((2-ethyl-2H-1,2,3-triazol-4-yl)amino)-4-((2-methoxy-3-(pyrimidin-2-yl)phenyl)amino)-N-(methyl-d3)pyridazine-3-carboxamide]	7.02
[2H]C([2H])([2H])NC(=O)c1nnc(NC(=O)C2CC2)cc1Nc1cccc(-c2ncc(N3CCOCC3=O)cn2)c1OC [Example 117]	6.95
[2H]C([2H])([2H])NC(=O)c1cnc(Nc2cc(=O)n(C)cn2)cc1Nc1cccc(-c2ncc(F)cn2)c1OC [Example 77, 4-((3-(5-fluoropyrimidin-2-yl)-2-methoxyphenyl)amino)-N-(methyl-d3)-6-((1-methyl-6-oxo-1,6-dihydropyrimidin-4-yl)amino)nicotinamide]	6.64
[2H]C([2H])([2H])NC(=O)c1nnc(NC(=O)C2CC2)cc1Nc1cc(F)cc(-c2cnc(C(C)O)cn2)c1OC (stereo not shown) [Example 24, 6-(cyclopropanecarboxamido)-4-((5-fluoro-3-(5-(1-hydroxyethyl)pyrazin-2-yl)-2-methoxyphenyl)amino)-N-(methyl-d3)pyridazine-3-carboxamide]	6.78
[2H]C([2H])([2H])NC(=O)c1nnc(NC(=O)C2CC2)cc1Nc1cc(F)cc(-c2ncc(C(=O)N(C)CC)cn2)c1OC [Example 54, 6-(cyclopropanecarboxamido)-4-((3-(5-(ethyl(methyl)carbamoyl)pyrimidin-2-yl)-5-fluoro-2-methoxyphenyl)amino)-N-(methyl-d3)pyridazine-3-carboxamide]	7.10
[2H]C([2H])([2H])NC(=O)c1nnc(NC(=O)C2CC2)cc1Nc1cccc(-c2ccc(S(C)(=O)=O)cn2)c1OC [Example 110]	6.32
[2H]C([2H])([2H])NC(=O)c1cnc(Nc2cc(C(F)(F)F)n(C)n2)cc1Nc1cccc(-c2ncc(F)cn2)c1OC [Example 64, 4-((3-(5-fluoropyrimidin-2-yl)-2-methoxyphenyl)amino)-N-(methyl-d3)-6-((1-methyl-5-(trifluoromethyl)-1H-pyrazol-3-yl)amino)nicotinamide]	7.12
[2H]C([2H])([2H])NC(=O)c1nnc(Nc2cn(CC)nn2)cc1Nc1cccc(-c2ncccn2)c1OC [Example 88, 6-((1-ethyl-1H-1,2,3-triazol-4-yl)amino)-4-((2-methoxy-3-(pyrimidin-2-yl)phenyl)amino)-N-(methyl-d3)pyridazine-3-carboxamide]	6.84
[2H]C([2H])([2H])NC(=O)c1nnc(NC(=O)C2CC2)cc1Nc1cccc(-c2cnc(C(C)(O)CF)cn2)c1OC (stereo not shown) [Example 35, 6-(cyclopropanecarboxamido)-4-((3-(5-(1-fluoro-2-hydroxypropan-2-yl)pyrazin-2-yl)-2-methoxyphenyl)amino)-N-(methyl-d3)pyridazine-3-carboxamide]	6.97
[2H]C([2H])([2H])NC(=O)c1nnc(NC(=O)C2CC2)cc1Nc1cccc(-c2ncc3ncn(C)c3n2)c1OC [Example 1, 6-(Cyclopropanecarboxamido)-4-((2-methoxy-3-(9-methyl-9H-purin-2-yl)phenyl)amino)-N-(methyl-d3)pyridazine-3-carboxamide]	6.60
[2H]C([2H])([2H])NC(=O)c1nnc(NC(=O)C2CC2)cc1Nc1cccc(-c2ncc(N3CCOC3=O)cn2)c1OC [Example 113]	7.44

Next, values leading:

pIC50	Compound
7.72	[2H]C([2H])([2H])NC(=O)c1nnc(Nc2cc(C(C)(C)O)n(C)n2)cc1Nc1cc(F)cc(-c2ncccn2)c1OC [Example 84, 4-((5-fluoro-2-methoxy-3-(pyrimidin-2-yl)phenyl)amino)-6-((5-(2-hydroxypropan-2-yl)-1-methyl-1H-pyrazol-3-yl)amino)-N-(methyl-d3)pyridazine-3-carboxamide]
7.39	[2H]C([2H])([2H])NC(=O)c1nnc(NC(=O)C2CC2)cc1Nc1cccc(-c2ncc(C(=O)N(C)CC)cn2)c1OC [Example 50, 6-(Cyclopropanecarboxamido)-4-((3-(5-(ethyl(methyl)carbamoyl)pyrimidin-2-yl)-2-methoxyphenyl)amino)-N-(methyl-d3)pyridazine-3-carboxamide]
6.84	[2H]C([2H])([2H])NC(=O)c1nnc(NC(=O)C2CC2)cc1Nc1cccc(-c2nccc(C#N)n2)c1OC [Example 3, 4-((3-(4-cyanopyrimidin-2-yl)-2-methoxyphenyl)amino)-6-(cyclopropanecarboxamido)-N-(methyl-d3)pyridazine-3-carboxamide]
7.80	[2H]C([2H])([2H])NC(=O)c1nnc(NC(=O)C2CC2)cc1Nc1cccc(-c2ncc(C(C)(O)CF)cn2)c1OC (stereo not shown) [Example 26, 6-(cyclopropanecarboxamido)-4-((3-(5-(1-fluoro-2-hydroxypropan-2-yl)pyrimidin-2-yl)-2-methoxyphenyl)amino)-N-(methyl-d3)pyridazine-3-carboxamide]
7.02	[2H]C([2H])([2H])NC(=O)c1nnc(NC(=O)C2CC2)cc1Nc1cccc(-c2ncc(N3CCOCC3)cn2)c1OC [Example 13, 6-(cyclopropanecarboxamido)-4-((2-methoxy-3-(5-morpholinopyrimidin-2-yl)phenyl)amino)-N-(methyl-d3)pyridazine-3-carboxamide]
6.37	[2H]C([2H])([2H])NC(=O)c1nnc(NC(=O)C2CC2)cc1Nc1cccc(-c2ncc(C#N)cn2)c1OC [Example 2, 4-((3-(5-cyanopyrimidin-2-yl)-2-methoxyphenyl)amino)-6-(cyclopropanecarboxamido)-N-(methyl-d3)pyridazine-3-carboxamide]
6.87	[2H]C([2H])([2H])NC(=O)c1cnc(Nc2ccn(C3CC3)n2)cc1Nc1cccc(-c2ncc(F)cn2)c1OC [Example 68, 6-((1-cyclopropyl-1H-pyrazol-3-yl)amino)-4-((3-(5-fluoropyrimidin-2-yl)-2-methoxyphenyl)amino)-N-(methyl-d3)nicotinamide]
7.25	[2H]C([2H])([2H])NC(=O)c1nnc(NC(=O)C2CC2)cc1Nc1cc(F)cc(-c2ccc(C(=O)N(C)C)nn2)c1OC [Example 42, 6-(cyclopropanecarboxamido)-4-((3-(6-(dimethylcarbamoyl)pyridazin-3-yl)-5-fluoro-2-methoxyphenyl)amino)-N-(methyl-d3)pyridazine-3-carboxamide]
7.27	[2H]C([2H])([2H])NC(=O)c1cnc(NC(=O)C2CC2)cc1Nc1cccc(-c2ncc(N3CCOCC3)cn2)c1OC [Example 16, 6-(cyclopropanecarboxamido)-4-((2-methoxy-3-(5-morpholinopyrimidin-2-yl)phenyl)amino)-N-(methyl-d3)nicotinamide]
7.01	[2H]C([2H])([2H])NC(=O)c1nnc(NC(=O)C2CC2)cc1Nc1cccc(-c2cnc(C(=O)N3CC[C@@H](F)C3)cn2)c1OC [Example 37, (R)-6-(cyclopropanecarboxamido)-4-((3-(5-(3-fluoropyrrolidine-1-carbonyl)pyrazin-2-yl)-2-methoxyphenyl)amino)-N-(methyl-d3)pyridazine-3-carboxamide]
7.42	[2H]C([2H])([2H])NC(=O)c1nnc(Nc2ccc(C)nn2)cc1Nc1cccc(-c2ncc(F)cn2)c1OC [Example 94, 4-((3-(5-fluoropyrimidin-2-yl)-2-methoxyphenyl)amino)-N-(methyl-d3)-6-((6-methylpyridazin-3-yl)amino)pyridazine-3-carboxamide]
